Key:
[1] = Self-degradation of aminal structure of released drug derivative; type: physicochemical
[2] = tested on: breast cancer ST225 tumor moderately expressing HER2; assay: Antitumor test (6), patient-derived breast cancer ST225 in nude mice; type: in vivo, nude mouse; details: 10 mg/kg intravenously on Day 0; HER2 score 2+; FIG. 8
Protocol: (§1) Assay and calculation expression: The major axis and minor axis of tumor were measured twice a week by using an electronic digital caliper, and the tumor volume (mm^3) was calculated. The calculation expression is as shown below.

[3] = tested on: colorectal cancer CTG-0401 tumor low or moderately expressing HER2; assay: Antitumor test (8), patient-derived colorectal cancer CTG-0401 in nude mice; type: in vivo, nude mouse; details: 10 mg/kg intravenously on Day 0; HER2 score 1+ or 2+; FIG. 10
Protocol: as §1

[4] = tested on: esophageal cancer CTG-0137 tumor highly expressing HER2; assay: Antitumor test (11), patient-derived esophageal cancer CTG-0137 in nude mice; type: in vivo, nude mouse; details: 10 mg/kg intravenously on Day 0; HER2 score 3+; FIG. 13
Protocol: as §1

[5] = tested on: Human ovarian cancer line SK-OV-3 cells highly expressing HER2; assay: Antitumor test (12), SK-OV-3 solid tumor in nude mice; type: in vivo, nude mouse; details: 10 mg/kg intravenously on Day 0, FIG. 14
Protocol: (§2) Assay and calculation expression: In all studies, the major axis and minor axis of a tumor were measured twice a week by using an electronic digital caliper (CD-15CX, Mitutoyo Corp.), and the tumor volume (mm^3) was calculated. The calculation expression is as shown below. Tumor volume(mm^3)=½×Major axis (mm)×[Minor axis (mm)]^2
(§3) All of the antibody-drug conjugates and the antibody were diluted with physiological saline (Otsuka Pharmaceutical Factory, Inc.) and used at a volume of 10 mL/kg for intravenous administration to the tail vein of each mouse.
Human ovarian cancer line SK-OV-3 cells highly expressing HER2 purchased from ATCC were suspended in physiological saline, and 4×10^7 cells were subcutaneously transplanted to the right side of the body of each female nude mouse to prepare SK-OV-3 solid tumor. Thereafter, this solid tumor was maintained at several passages by transplantation to female nude mice and used in this test. […]

[6] = tested on: Human pancreatic cancer line Capan-1 cells weakly expressing HER2; assay: Antitumor test (4), Capan-1 solid tumor in nude mice; type: in vivo, nude mouse; details: 10 mg/kg intravenously on Day 20; tumor with low HER2 expression; FIG. 6
Protocol: as §2, §3
Human pancreatic cancer line Capan-1 cells (ATCC) weakly expressing HER2 were suspended in physiological saline, and 4×10^7 cells were subcutaneously transplanted to the right side of the body of each female nude mouse to generate Capan-1 solid tumor. Thereafter, this solid tumor was maintained at several passages by transplantation to female nude mice and used in this test. […]

[7] = tested on: Human gastric cancer line NCI-N87 cells; assay: Antitumor test (2), NCI-N87 subcutaneous transplant in nude mice; type: in vivo, nude mouse; details: 10 mg/kg intravenously on Day 7; FIG. 4
Protocol: Mouse: 5- to 6-week-old female nude mice (Charles River Laboratories Japan, Inc.) were acclimatized for 4 to 7 days under SPF conditions before use in the experiment. The mice were fed with sterilized solid feed (FR-2, Funabashi Farms Co., Ltd) and given sterilized tap water (prepared by the addition of 5 to 15 ppm sodium hypochlorite solution). Assay and calculation expression: In all studies, the major axis and minor axis of a tumor were measured twice a week by using an electronic digital caliper ([…] Corp.), and the tumor volume (mm^3) was calculated. The calculation expression is as shown below. […] Human gastric cancer line NCI-N87 cells purchased from ATCC (American Type Culture Collection) were suspended in physiological saline, and 1×10^7 cells were subcutaneously transplanted to the right side of the body of each female nude mouse (Day 0), and the mice were randomly grouped on Day 7. […] An untreated group was established as a control group.

[8] = tested on: Human breast cancer line JIMT-1 cells; assay: Antitumor test (3), JIMT-1 subcutaneous transplant in nude mice; type: in vivo, nude mouse; details: 10 mg/kg intravenously on Days 12 and 19; FIG. 5
Protocol: as §2, §3
Human breast cancer line JIMT-1 cells purchased from DSMZ (Deutsche Sammlung von Mikroorganismen und Zellkulturen GmbH) were suspended in physiological saline, and 3×10^6 cells were subcutaneously transplanted to the right side of the body of each female nude mouse (Day 0), and the mice were randomly grouped on Day 12. […] A physiological saline administration group was established as a control group.

[9] = tested on: non-small cell lung cancer CTG-0860 tumor moderately expressing HER2; assay: Antitumor test (9), patient-derived non-small cell lung cancer CTG-0860 in nude mice; type: in vivo, nude mouse; details: 10 mg/kg intravenously on Day 0; HER2 score 2+; FIG. 11
Protocol: as §1

[10] = tested on: bile duct cancer CTG-0927 tumor highly expressing HER2; assay: Antitumor test (10), patient-derived bile duct cancer CTG-0927 in nude mice; type: in vivo, nude mouse; details: 10 mg/kg intravenously on Day 0; HER2 score 3+; FIG. 12
Protocol: as §1

[11] = tested on: breast cancer ST910 tumor low expressing HER2; assay: Antitumor test (7), patient-derived breast cancer ST910 in nude mice; type: in vivo, nude mouse; details: 10 mg/kg intravenously on Day 0; HER2 score 1+; FIG. 9
Protocol: as §1

| Molecule | stability of the aminal structure; releases HO—CH2—C(═O)—(NH-DX) [1] | growth of the breast cancer ST225 tumor (tumor volume) [2] | growth of the colorectal cancer CTG-0401 tumor (tumor volume) [3] | growth of the esophageal cancer CTG-0137 tumor (tumor volume) [4] | growth of the SK-OV-3 tumor (tumor volume) [5] | growth of the Capan-1 tumor (tumor volume) [6] | antitumor effect (tumor volume), NCI-N87 [7] | growth of the JIMT-1 tumor (tumor volume) [8] | growth of the non-small cell lung cancer CTG-0860 tumor (tumor volume) [9] | growth of the bile duct cancer CTG-0927 tumor (tumor volume) [10] | growth of the breast cancer ST910 tumor (tumor volume) [11] |
| --- | --- | --- | --- | --- | --- | --- | --- | --- | --- | --- | --- |
| CC[C@@]1(O)C(=O)OCc2c1cc1n(c2=O)Cc2c-1nc1cc(F)c(C)c3c1c2[C@@H](NC(=O)COCN)CC3 [NH2—CH2—O—CH2—C(═O)—(NH-DX)] | undergoes a self-degradation |  |  |  |  |  |  |  |  |  |  |
| trastuzumab emtansine |  | remarkably inhibited the growth of the tumor | did not inhibit the growth | remarkably inhibited the growth of the tumor | remarkably inhibited the growth of the tumor | did not inhibit the growth of the Capan-1 tumor | tumor regression | did not inhibit the growth of the JIMT-1 tumor | did not inhibit the growth | inhibited the growth of the tumor | did not inhibit the growth |
